These are literature values, as cited in US20230040901A1, “PHARMACEUTICAL COMPOSITION FOR INHIBITING POSTOPERATIVE ADHESIONS” (PlantTec Medical GmbH, priority 2018, published 2023).

In data set [1] the test system is postoperative adhesions. The following applies: 2% to 4% citrate in water or saline solution, 60 experiments on rabbits.
In data set [2] the test system is postoperative adhesions. The following applies: clinical application in 400 abdominal surgeries.

As for `O=C(O)CC(O)(CC(=O)O)C(=O)O` [citrate], in data set [1], the Adhesions result is on record as “fewer adhesions”. The Development of adhesions result in data set [2] was “clear improvement”.
